Tests used:
Format in all cases: cell-based
rat neuroid cells B50 [1] = test: Toxicity evaluation, cell viability by Alamar Blue; conditions: 12.5, 25, 50, 100, or 200 μmol/1, 24 hours, FIG. 5
Description: Rat neuroid cells B50 were seeded in 12-well plates and then cultured. Edaravone (RC), ED2AP, or BisEp-C3 was added to each well so as to achieve a predetermined concentration (12.5, 25, 50, 100, or 200 μmol/1), and then incubated for 24 hours at 37° C. and 5% CO2. Cell viability in each well after the culture was measured using Alamar Blue.

rat neuroid cells B50 [2] = test: Toxicity evaluation on byproducts after reaction with singlet oxygen; conditions: byproducts after reaction with singlet oxygen, 50, 100, or 200 μmol/1, FIG. 6
Description: In a cell-free system, the RB was added to media (5% FCS-containing RPMI-1640 media) containing edaravone, ED2AP, and BisEp-C3 having a predetermined concentration (50, 100, or 200 μmol/1) and then irradiated with LED (G-LED) at 525 nm to generate singlet oxygen, whereby reacting each compound with singlet oxygen. The cell viability was measured in the same manner as in Example 7(1), except that the culture solution after the reaction was used as a medium of the neuroid cell B50. As a negative control (NC), the cell viability was measured in the same manner except that each compound and […] were not added in the cell-free system. Further, as a control (RB), the cell viability was measured in the same manner except that each compound was not added and only […] was added in the cell-free system.

rat neuroid cells B50 [3] = test: Cytoprotection against singlet oxygen (Rose Bengal + G-LED), Alamar Blue fluorescence; conditions: 0, 12.5, 25, 50, or 100 μmol/1, RB 200 nmol/1 + G-LED 5 minutes, negative control being 100, FIG. 3
Description: Edaravone, ED2AP and BisEp-C3 were examined for whether they had the function of alleviating neuronopathy. Specifically, singlet oxygen was generated by combining Rose Bengal (RB), which is a sensitizer, with green light (G-LED), and the function of alleviating the cytotoxicity of the generated singlet oxygen was examined with the cellular activity being an indicator.
First, rat neuroid cells B50 were cultured in 12-well dishes at 2×10^5 cells/well (medium: RPMI-1640 medium containing 5% FCS) overnight. After the culturing, the medium of each well was replaced with HBSS (1,000 μl/well; phenol red-free Ca+, Mg+) containing 200 nmol/1 RB and edaravone, ED2AP, or BisEp-C3 having a predetermined concentration (0, 12.5, 25, 50, or 100 μmol/1). The dish was then irradiated with G-LED for 5 minutes to generate singlet oxygen. Thereafter, the medium of each well was replaced with 1,000 μl of HBSS, and Alamar Blue was added. The dish was then allowed to react for about 2 hours in an incubator at 37° C. and 5%CO2. After the reaction, fluorescence intensity (excitation wavelength: λ- 560 nm, fluorescence wavelength: λ-595 nm) was measured with a plate reader (infinite200, Tecan Trading AG). In this experimental system, the higher the cellular activity, the more Alamar Blue is taken up and the higher the fluorescence intensity. As a control, fluorescence intensity was measured in the same manner except that sodium azide (Azide, NaN3) was added instead of the compounds so as to achieve a concentration of 4 mmol/1. As a negative control (NC), fluorescence intensity was measured in the same manner except that RB was not added. The relative value of the fluorescence intensity in the sample to which each compound was added was calculated with the fluorescence intensity of the negative control being 100.

Structure (SMILES): CC1=NN(c2ccccc2)C(=O)C1 [Edaravone, 3-methyl-1-phenyl-5-pyrazolone, reference compound]
- cell viability (cytotoxicity) (rat neuroid cells B50 [1]): not cytotoxic at any concentration
- cell viability (cytotoxicity of byproducts) (rat neuroid cells B50 [2]): not cytotoxic at any concentration
- relative value of the fluorescence intensity (rat neuroid cells B50 [3]): not recovered

From US12569470B2, “Vasodilator and use thereof” (Bioradical Research Institute Corp., priority 2019, dated 2026)
